Data from patent US10246462B2, “Chemokine receptor modulators and uses thereof” (FLX Bio, Inc., priority 2016, dated 2019).
Counter-ions that a name gives are not always drawn.

Each compound was assayed against CCR4 (Homo sapiens (Human), UniProt P51679) (assay: Calcium mobilization (Ca Flux) assay).
Assay type: cell-based
Experimental: Calcium Mobilization Assay. Calcium mobilization experiments may be performed by labeling the human T-cell line CEM with […] dye (45 min at room temperature), washing with PBS, and re-suspending into flux buffer (HBSS with 1% FBS).

CCR4, sequence (P51679 whole entry): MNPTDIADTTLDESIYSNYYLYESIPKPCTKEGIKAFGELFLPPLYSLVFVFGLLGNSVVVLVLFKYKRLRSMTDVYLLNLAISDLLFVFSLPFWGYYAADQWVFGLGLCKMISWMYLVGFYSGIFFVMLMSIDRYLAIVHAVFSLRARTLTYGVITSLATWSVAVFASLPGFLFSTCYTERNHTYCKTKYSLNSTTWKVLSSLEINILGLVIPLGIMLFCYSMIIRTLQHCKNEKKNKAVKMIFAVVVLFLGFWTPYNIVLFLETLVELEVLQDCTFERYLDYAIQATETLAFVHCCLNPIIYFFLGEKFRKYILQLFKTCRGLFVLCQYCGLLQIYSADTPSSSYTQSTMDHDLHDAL

IC50 [nM]	Structure (SMILES)
100 to 500	Cc1nn([C@H](C)c2ccc(Cl)cc2Cl)c2nc(N3CCC(N4CCC[C@H]4C(C)CC(=O)O)C(C)C3)cnc12 (stereo partly drawn) [Example 60, 3-((2S)-1-(1-(1-((R)-1-(2,4-Dichlorophenyl)ethyl)-3-methyl-1H-pyrazolo[3,4-b]pyrazin-6-yl)-3-methylpiperidin-4-yl)pyrrolidin-2-yl)butanoic acid 2,2,2-trifluoroacetate]
> 500	Cc1nn([C@H](C)c2ccc(Cl)cc2Cl)c2nc(N3CCC(N4CCC[C@H]4CC(F)C(=O)O)C(C)C3)cnc12 (single isomer, unassigned) [Example 57]
> 500	Cc1nn([C@H](C)c2ccc(Cl)cc2Cl)c2nc(N3CCC(N4CCC[C@H]4CC(F)(F)C(=O)O)C(C)C3)cnc12 (stereo partly drawn) [Example 58, 3-((2S)-1-(1-(1-((R)-1-(2,4-Dichlorophenyl)ethyl)-3-methyl-1H-pyrazolo[3,4-b]pyrazin-6-yl)-3-methylpiperidin-4-yl)pyrrolidin-2-yl)-2,2-difluoropropanoic acid 2,2,2-trifluoroacetate]
> 500	Cc1nn([C@H](C)c2ccc(Cl)cc2Cl)c2nc(N3CCC(N4CCC[C@@H]4C)C(C)C3)cnc12 (stereo partly drawn) [Example 21, 1-((R)-1-(2,4-Dichlorophenyl)ethyl)-3-methyl-6-(3-methyl-4-((S)-2-methylpyrrolidin-1-yl)piperidin-1-yl)-1H-pyrazolo[3,4-b]pyrazine hydrochloride]
100 to 500	Cc1nn([C@H](C)c2ccc(Cl)cc2Cl)c2nc(N3CC[C@H](N4CCC[C@@H]4C)[C@H](C)C3)cnc12 [Example 22, 1-((R)-1-(2,4-Dichlorophenyl)ethyl)-3-methyl-6-((3R,4S)-3-methyl-4-((S)-2-methylpyrrolidin-1-yl)piperidin-1-yl)-1H-pyrazolo[3,4-b]pyrazine hydrochloride]
> 500	Cc1nn([C@H](C)c2ccc(Cl)cc2Cl)c2nc(N3CCC(N4CCCC(CCC(=O)O)C4)C(C)C3)cnc12 (mixture of isomers) [Example 41, 3-(1′-(1-((R)-1-(2,4-dichlorophenyl)ethyl)-3-methyl-1H-pyrazolo[3,4-b]pyrazin-6-yl)-3′-methyl-[1,4′-bipiperidin]-3-yl)propanoic acid]
100 to 500	Cc1nn([C@H](C)c2ccc(Cl)cc2Cl)c2nc(N3CCC(N4CCC[C@H]4CC(O)C(=O)O)C(C)C3)cnc12 (stereo partly drawn) [Example 59, 3-((2S)-1-(1-(1-((R)-1-(2,4-Dichlorophenyl)ethyl)-3-methyl-1H-pyrazolo[3,4-b]pyrazin-6-yl)-3-methylpiperidin-4-yl)pyrrolidin-2-yl)-2-hydroxypropanoic acid 2,2,2-trifluoroacetate]
> 500	Cc1nn([C@H](C)c2ccc(Cl)cc2Cl)c2nc(N3CC[C@H](N4C[C@H](O)C[C@H]4C(=O)O)[C@H](C)C3)cnc12 [Example 37, (2S,4R)-1-((3R,4S)-1-(1-((R)-1-(2,4-Dichlorophenyl)ethyl)-3-methyl-1H-pyrazolo[3,4-b]pyrazin-6-yl)-3-methylpiperidin-4-yl)-4-hydroxypyrrolidine-2-carboxylic acid 2,2,2-trifluoroacetate]
100 to 500	Cc1nn([C@H](C)c2ccc(Cl)cc2Cl)c2nc(N3CCC(N4CCC[C@H]4CC(F)C(=O)O)C(C)C3)cnc12 (single isomer, unassigned) [Example 56]
< 100	Cc1nn([C@H](C)c2ccc(Cl)cc2Cl)c2nc(N3CC[C@H](N4CCC[C@H]4CCS(N)(=O)=O)[C@H](C)C3)cnc12 [Example 52, 2-((S)-1-((3R,4S)-1-(1-((R)-1-(2,4-Dichlorophenyl)ethyl)-3-methyl-1H-pyrazolo[3,4-b]pyrazin-6-yl)-3-methylpiperidin-4-yl)pyrrolidin-2-yl)ethane-1-sulfonamide hydrochloride]
> 500	Cc1nn([C@H](C)c2ccc(Cl)cc2Cl)c2nc(N3CC[C@@H](N4CCC[C@@H](CCC(=O)O)C4)[C@@H](C)C3)cnc12 [Example 40, 3-((3S,3′S,4′R)-1′-(1-((R)-1-(2,4-Dichlorophenyl)ethyl)-3-methyl-1H-pyrazolo[3,4-b]pyrazin-6-yl)-3′-methyl-[1,4′-bipiperidin]-3-yl)propanoic acid 2,2,2-trifluoroacetate]
100 to 500	Cc1nn([C@H](C)c2ccc(Cl)cc2Cl)c2nc(N3CC[C@H](N4CCC[C@@H](CC(=O)O)C4)[C@H](C)C3)cnc12 [Example 38, 2-((3S,3′R,4′S)-1′-(1-((R)-1-(2,4-Dichlorophenyl)ethyl)-3-methyl-1H-pyrazolo[3,4-b]pyrazin-6-yl)-3′-methyl-[1,4′-bipiperidin]-3-yl)acetic acid formate]

Continued, compound first:

Structure (SMILES)	IC50 [nM]
C[C@@H]1CN(c2cnc3c(C#N)nn([C@H](C)c4ccc(Cl)cc4Cl)c3n2)CC[C@@H]1N1CCC[C@H]1CCC(=O)O [Example 43, 3-((S)-1-((3R,4S)-1-(3-Cyano-1-((R)-1-(2,4-dichlorophenyl)ethyl)-1H-pyrazolo[3,4-b]pyrazin-6-yl)-3-methylpiperidin-4-yl)pyrrolidin-2-yl)propanoic acid hydrochloride]	< 100
Cc1nn([C@H](C)c2ccc(Cl)cc2Cl)c2nc(C3=CC[C@H](N4CCC[C@H]4CCC(=O)O)[C@H](C)C3)cnc12 [Example 71, 3-((S)-1-((1S,6R)-4-(1-((R)-1-(2,4-Dichlorophenyl)ethyl)-3-methyl-1H-pyrazolo[3,4-b]pyrazin-6-yl)-6-methylcyclohex-3-en-1-yl)pyrrolidin-2-yl)propanoic acid hydrochloride]	< 100
Cc1nn([C@H](C)c2ccc(Cl)cc2Cl)c2nc(C3=CC[C@H](N4CCC[C@H]4C(N)=O)[C@H](C)C3)cnc12 [Example 86, (S)-1-((1S,6R)-4-(1-((R)-1-(2,4-Dichlorophenyl)ethyl)-3-methyl-1H-pyrazolo[3,4-b]pyrazin-6-yl)-6-methylcyclohex-3-en-1-yl)pyrrolidine-2-carboxamide hydrochloride]	100 to 500
CC1CC(c2cnc3c(C(F)(F)F)nn([C@H](C)c4ccc(Cl)cc4Cl)c3n2)=CCC1N1CCC[C@H]1CO (some centres unmarked) [Example 89]	100 to 500
CC1CN(c2cnc3c(C(N)=O)nn([C@H](C)c4ccc(Cl)cc4Cl)c3n2)CCC1N1CCCCC1 (stereo partly drawn) [Example 5, 1-((R)-1-(2,4-Dichlorophenyl)ethyl)-6-(3′-methyl-[1,4′-bipiperidin]-1′-yl)-1H-pyrazolo[3,4-b]pyrazine-3-carboxamide 2,2,2-trifluoroacetate]	100 to 500
Cc1nn([C@H](C)c2ccc(Cl)cc2Cl)c2nc(N3CC(C)C(N4CCCC4)C[C@@H]3C)cnc12 (stereo partly drawn) [Example 18, 1-((R)-1-(2,4-Dichlorophenyl)ethyl)-6-((2S)-2,5-dimethyl-4-(pyrrolidin-1-yl)piperidin-1-yl)-3-methyl-1H-pyrazolo[3,4-b]pyrazine hydrochloride]	100 to 500
Cc1nn([C@H](C)c2ccc(Cl)cc2Cl)c2nc(N3CCC(C4CCCNC4)C(C)C3)cnc12 (stereo partly drawn) [Example 66, 1-((R)-1-(2,4-Dichlorophenyl)ethyl)-3-methyl-6-(3′-methyl-[3,4′-bipiperidin]-1′-yl)-1H-pyrazolo[3,4-b]pyrazine hydrochloride]	100 to 500
C[C@@H]1CN(c2cnc3c(C#N)nn([C@H](C)c4ccc(Cl)cc4Cl)c3n2)CC[C@@H]1N1CCC[C@H]1C(=O)O [Example 35, ((3R,4S)-1-(3-Cyano-1-((R)-1-(2,4-dichlorophenyl)ethyl)-1H-pyrazolo[3,4-b]pyrazin-6-yl)-3-methylpiperidin-4-yl)-L-proline 2,2,2-trifluoroacetate]	100 to 500
C[C@@H]1CN(c2cnc3c(C#N)nn([C@H](C)c4ccc(Cl)cc4Cl)c3n2)CC[C@@H]1N1CCC[C@H]1CCC(N)=O [Example 48, 3-((S)-1-((3R,4S)-1-(3-Cyano-1-((R)-1-(2,4-dichlorophenyl)ethyl)-1H-pyrazolo[3,4-b]pyrazin-6-yl)-3-methylpiperidin-4-yl)pyrrolidin-2-yl)propanamide 2,2,2-trifluoroacetate]	< 100
Cc1nn([C@H](C)c2ccc(Cl)cc2Cl)c2nc(C3=CCC(N4CCC[C@H]4CO)C(C)C3)cnc12 (stereo partly drawn) [Example 78, ((2S)-1-(4-(1-((R)-1-(2,4-Dichlorophenyl)ethyl)-3-methyl-1H-pyrazolo[3,4-b]pyrazin-6-yl)-6-methylcyclohex-3-en-1-yl)pyrrolidin-2-yl)methanol]	< 100
CC1C=C(c2cnc3c(C#N)nn([C@H](C)c4ccc(Cl)cc4Cl)c3n2)CCC1N1CCC[C@H]1CCC(=O)O (stereo partly drawn) [Example 73, 3-((2S)-1-(4-(3-Cyano-1-((R)-1-(2,4-dichlorophenyl)ethyl)-1H-pyrazolo[3,4-b]pyrazin-6-yl)-2-methylcyclohex-3-en-1-yl)pyrrolidin-2-yl)propanoic acid 2,2,2-trifluoroacetate]	100 to 500
Cc1nn([C@H](C)c2ccc(Cl)cc2Cl)c2nc(N3C[C@@H](C)[C@@H](N4CCCC4)C[C@@H]3C)cnc12 [Example 19, 1-((R)-1-(2,4-Dichlorophenyl)ethyl)-6-((2S,4S,5R)-2,5-dimethyl-4-(pyrrolidin-1-yl)piperidin-1-yl)-3-methyl-1H-pyrazolo[3,4-b]pyrazine hydrochloride]	100 to 500
C[C@@H]1CC(c2cnc3c(C#N)nn([C@H](C)c4ccc(Cl)cc4Cl)c3n2)=CCC1N1CCC[C@H]1C(O)CS(C)(=O)=O (stereo partly drawn) [Example 87, 1-((R)-1-(2,4-Dichlorophenyl)ethyl)-6-((4S,5R)-4-((2S)-2-(1-hydroxy-2-(methylsulfonyl)ethyl)pyrrolidin-1-yl)-5-methylcyclohex-1-en-1-yl)-1H-pyrazolo[3,4-b]pyrazine-3-carbonitrile hydrochloride]	< 100
Cc1nn([C@H](C)c2ccc(Cl)cc2Cl)c2nc(N3CCC(N4CCC[C@H]4CCC(=O)O)CC3)cnc12 [Example 51, 3-((S)-1-(1-(1-((R)-1-(2,4-Dichlorophenyl)ethyl)-3-methyl-1H-pyrazolo[3,4-b]pyrazin-6-yl)piperidin-4-yl)pyrrolidin-2-yl)propanoic acid 2,2,2-trifluoroacetate]	100 to 500
